Laboratory results taken from the supplement of paper PMC10307832.

Tests used:
Assay in all cases: relative viability (nuclei count vs DMSO), 5 days (fraction); higher = more cells survive
[1] = compound: COc1cc2nc(N3CCCN(C)CC3)nc(NC3CCN(Cc4ccccc4)CC3)c2cc1OC + CC(C)C[C@H](NC(=O)[C@H](Cc1ccccc1)NC(=O)c1cnccn1)B(O)O [Bortezomib] (partner 0.002 µM)
Outline: (§1)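 Lung cancer cell lines, seeded in 1536-well plates, were treated the following day by pin tool with a single drug or with five library-drug doses (not always all listed) in √10 steps on top of a fixed anchor-drug dose. Cells were fixed and nuclei stained in one step after 5 days, and nuclei were counted. Relative viability is the nuclei count for treated wells divided by that for vehicle wells, reported as medians of duplicate plates.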

[2] = compound: COc1cc2nc(N3CCCN(C)CC3)nc(NC3CCN(Cc4ccccc4)CC3)c2cc1OC + CCNC(=O)c1noc(-c2cc(C(C)C)c(O)cc2O)c1-c1ccc(CN2CCOCC2)cc1 [Luminespib] (partner 0.01 µM)
Outline: as §1

[3] = compound: COc1cc2nc(N3CCCN(C)CC3)nc(NC3CCN(Cc4ccccc4)CC3)c2cc1OC + Cc1nc(Nc2ncc(C(=O)Nc3c(C)cccc3Cl)s2)cc(N2CCN(CCO)CC2)n1 [Dasatinib] (partner 0.075 µM)
Outline: as §1

[4] = compound: Cc1cc([C@@H](C)Nc2ccccc2C(=O)O)c2nc(N3CCOCC3)cc(=O)n2c1 [AZD6482] + CS(=O)(=O)CCNCc1ccc(-c2ccc3ncnc(Nc4ccc(OCc5cccc(F)c5)c(Cl)c4)c3c2)o1 [Lapatinib] (partner 2 µM)
Outline: as §1

Q: Which results are given for UMC-11?
A: relative viability ([1]; first compound 0.2 µM): 0.737; relative viability ([1]; first compound 0.6325 µM): 0.778; relative viability ([1]; first compound 2 µM): 0.71; relative viability ([1]; first compound 6.325 µM): 0.594; relative viability ([2]; first compound 0.2 µM): 1.06; relative viability ([2]; first compound 0.6325 µM): 1.08; relative viability ([2]; first compound 2 µM): 1.05; relative viability ([2]; first compound 6.325 µM): 0.816; relative viability ([3]; first compound 0.2 µM): 0.464; relative viability ([3]; first compound 0.6325 µM): 0.435; relative viability ([3]; first compound 2 µM): 0.468; relative viability ([3]; first compound 6.325 µM): 0.286; relative viability ([4]; first compound 0.08 µM): 0.875; relative viability ([4]; first compound 0.253 µM): 0.902; relative viability ([4]; first compound 0.8 µM): 1.03; relative viability ([4]; first compound 2.53 µM): 0.602; relative viability ([4]; first compound 8 µM): 1.34
